Measured values from US20240415914A1, “Water Dispersible Cannabinoid Compositions” (priority 2021, published 2024).
Like-named read-outs stand apart in the source and are kept apart here.

What was measured:
[1] = format: physicochemical; conditions: stored at room temperature (21-25° C.)
Protocol: At each time period, 0.05 g of powder was dissolved in 10 ml-15 of ethanol, diluted to fall within the analytical range, and injected into the LCMSMS for analysis.

[2] = Stability of cannabinoid and Vitamin E components of Beverage 2 (AB Red) stored at 8° C. and 21-25° C., LCMSMS over 570 days
Protocol: The LCMSMS was calibrated for 0-50 ng/ml cannabinoids with the same resin material used in the preparation of the concentrates. At each time period, 100 μml of beverage was diluted with 10 ml of methanol and injected into the LCMSMS for analysis.

**Q.** What does the source list for `CC(=O)Oc1c(C)c(C)c2c(c1C)CCC(C)(CCC[C@H](C)CCC[C@H](C)CCCC(C)C)O2` (stereo partly drawn) [α-Tocopheryl acetate]?
**A.** Stability in Powder Concentrate (content by LCMSMS) ([1]; day 0): 2.15 mg/g powder; Stability in Powder Concentrate (content by LCMSMS) ([1]; day 1): 2.19 mg/g powder; Stability in Powder Concentrate (content by LCMSMS) ([1]; day 2): 2.11 mg/g powder; Stability in Powder Concentrate (content by LCMSMS) ([1]; day 3): 2.18 mg/g powder; Stability in Powder Concentrate (content by LCMSMS) ([1]; day 5): 2.24 mg/g powder; Stability in Powder Concentrate (content by LCMSMS) ([1]; day 8): 2.23 mg/g powder; Stability in Powder Concentrate (content by LCMSMS) ([1]; day 9): 2.09 mg/g powder; Stability in Powder Concentrate (content by LCMSMS) ([1]; day 10): 2.09 mg/g powder; Stability in Powder Concentrate (content by LCMSMS) ([1]; day 11): 2.20 mg/g powder; Stability in Powder Concentrate (content by LCMSMS) ([1]; day 12): 2.17 mg/g powder; Stability in Powder Concentrate (content by LCMSMS) ([1]; day 15): 2.24 mg/g powder; Stability in Powder Concentrate (content by LCMSMS) ([1]; day 16): 2.15 mg/g powder; Stability in Powder Concentrate (content by LCMSMS) ([1]; day 17): 2.13 mg/g powder; Stability in Powder Concentrate (content by LCMSMS) ([1]; day 18): 2.10 mg/g powder; Stability in Powder Concentrate (content by LCMSMS) ([1]; day 19): 2.21 mg/g powder; Stability in Powder Concentrate (content by LCMSMS) ([1]; day 22): 2.11 mg/g powder; Stability in Powder Concentrate (content by LCMSMS) ([1]; day 23): 2.16 mg/g powder; Stability in Powder Concentrate (content by LCMSMS) ([1]; day 24): 2.09 mg/g powder; Stability in Powder Concentrate (content by LCMSMS) ([1]; day 25): 2.24 mg/g powder; Stability in Powder Concentrate (content by LCMSMS) ([1]; day 26): 2.10 mg/g powder; Stability in Powder Concentrate (content by LCMSMS) ([1]; day 29): 2.21 mg/g powder; Stability in Powder Concentrate (content by LCMSMS) ([1]; day 30): 2.08 mg/g powder; Stability in Powder Concentrate (content by LCMSMS) ([1]; day 60): 2.15 mg/g powder; Stability in Powder Concentrate (content by LCMSMS) ([1]; day 90): 2.24 mg/g powder; Stability in Powder Concentrate (content by LCMSMS) ([1]; day 120): 2.17 mg/g powder; Stability in Powder Concentrate (content by LCMSMS) ([1]; day 150): 2.18 mg/g powder; Stability in Powder Concentrate (content by LCMSMS) ([1]; day 180): 2.20 mg/g powder; Stability in Powder Concentrate (content by LCMSMS) ([1]; day 210): 2.15 mg/g powder; Stability in Powder Concentrate (content by LCMSMS) ([1]; day 240): 2.23 mg/g powder; Stability in Powder Concentrate (content by LCMSMS) ([1]; day 270): 2.13 mg/g powder; Stability in Powder Concentrate (content by LCMSMS) ([1]; day 300): 2.09 mg/g powder; Stability in Powder Concentrate (content by LCMSMS) ([1]; day 330): 2.15 mg/g powder; Stability in Powder Concentrate (content by LCMSMS) ([1]; day 360): 2.12 mg/g powder; Stability in Powder Concentrate (content by LCMSMS) ([1]; day 390): 2.21 mg/g powder; Stability in Powder Concentrate (content by LCMSMS) ([1]; day 420): 2.21 mg/g powder; Stability in Powder Concentrate (content by LCMSMS) ([1]; day 450): 2.07 mg/g powder; Stability in Powder Concentrate (content by LCMSMS) ([1]; day 480): 2.10 mg/g powder; Stability in Powder Concentrate (content by LCMSMS) ([1]; day 510): 2.15 mg/g powder; Stability in Powder Concentrate (content by LCMSMS) ([1]; day 540): 2.21 mg/g powder; Stability in Powder Concentrate (content by LCMSMS) ([1]; day 570): 2.13 mg/g powder; Stability of Vitamin Es in AB Red ([2]; 8° C., 0 days): 12.5 µg/mL; Stability of Vitamin Es in AB Red ([2]; 8° C., 1 days): 11.6 µg/mL; Stability of Vitamin Es in AB Red ([2]; 8° C., 2 days): 11.5 µg/mL; Stability of Vitamin Es in AB Red ([2]; 8° C., 3 days): 11.6 µg/mL; Stability of Vitamin Es in AB Red ([2]; 8° C., 5 days): 12.3 µg/mL; Stability of Vitamin Es in AB Red ([2]; 8° C., 8 days): 12.2 µg/mL; Stability of Vitamin Es in AB Red ([2]; 8° C., 9 days): 12.1 µg/mL; Stability of Vitamin Es in AB Red ([2]; 8° C., 10 days): 12.6 µg/mL; Stability of Vitamin Es in AB Red ([2]; 8° C., 11 days): 11.9 µg/mL; Stability of Vitamin Es in AB Red ([2]; 8° C., 12 days): 12.4 µg/mL; Stability of Vitamin Es in AB Red ([2]; 8° C., 15 days): 12.0 µg/mL; Stability of Vitamin Es in AB Red ([2]; 8° C., 16 days): 11.5 µg/mL; Stability of Vitamin Es in AB Red ([2]; 8° C., 17 days): 11.8 µg/mL; Stability of Vitamin Es in AB Red ([2]; 8° C., 18 days): 12.5 µg/mL; Stability of Vitamin Es in AB Red ([2]; 8° C., 19 days): 12.5 µg/mL; Stability of Vitamin Es in AB Red ([2]; 8° C., 22 days): 12.5 µg/mL; Stability of Vitamin Es in AB Red ([2]; 8° C., 23 days): 11.9 µg/mL; Stability of Vitamin Es in AB Red ([2]; 8° C., 24 days): 12.6 µg/mL; Stability of Vitamin Es in AB Red ([2]; 8° C., 25 days): 12.3 µg/mL; Stability of Vitamin Es in AB Red ([2]; 8° C., 26 days): 11.6 µg/mL; Stability of Vitamin Es in AB Red ([2]; 8° C., 29 days): 11.7 µg/mL; Stability of Vitamin Es in AB Red ([2]; 8° C., 30 days): 12.1 µg/mL; Stability of Vitamin Es in AB Red ([2]; 8° C., 60 days): 11.4 µg/mL; Stability of Vitamin Es in AB Red ([2]; 8° C., 90 days): 11.6 µg/mL; Stability of Vitamin Es in AB Red ([2]; 8° C., 120 days): 11.7 µg/mL; Stability of Vitamin Es in AB Red ([2]; 8° C., 150 days): 12.3 µg/mL; Stability of Vitamin Es in AB Red ([2]; 8° C., 180 days): 12.6 µg/mL; Stability of Vitamin Es in AB Red ([2]; 8° C., 210 days): 11.8 µg/mL; Stability of Vitamin Es in AB Red ([2]; 8° C., 240 days): 11.2 µg/mL; Stability of Vitamin Es in AB Red ([2]; 8° C., 270 days): 11.6 µg/mL; Stability of Vitamin Es in AB Red ([2]; 8° C., 300 days): 11.2 µg/mL; Stability of Vitamin Es in AB Red ([2]; 8° C., 330 days): 11.3 µg/mL; Stability of Vitamin Es in AB Red ([2]; 8° C., 390 days): 11.4 µg/mL; Stability of Vitamin Es in AB Red ([2]; 8° C., 420 days): 11.2 µg/mL; Stability of Vitamin Es in AB Red ([2]; 8° C., 450 days): 11.4 µg/mL; Stability of Vitamin Es in AB Red ([2]; 8° C., 480 days): 10.7 µg/mL; Stability of Vitamin Es in AB Red ([2]; 8° C., 510 days): 10.6 µg/mL; Stability of Vitamin Es in AB Red ([2]; 8° C., 540 days): 10.8 µg/mL; Stability of Vitamin Es in AB Red ([2]; 8° C., 570 days): 10.8 µg/mL; Stability of Vitamin Es in AB Red ([2]; 21-25° C., 0 days): 12.5 µg/mL; Stability of Vitamin Es in AB Red ([2]; 21-25° C., 1 days): 12.1 µg/mL; Stability of Vitamin Es in AB Red ([2]; 21-25° C., 2 days): 12.5 µg/mL; Stability of Vitamin Es in AB Red ([2]; 21-25° C., 3 days): 11.7 µg/mL; Stability of Vitamin Es in AB Red ([2]; 21-25° C., 5 days): 12.2 µg/mL; Stability of Vitamin Es in AB Red ([2]; 21-25° C., 8 days): 11.4 µg/mL; Stability of Vitamin Es in AB Red ([2]; 21-25° C., 9 days): 11.6 µg/mL; Stability of Vitamin Es in AB Red ([2]; 21-25° C., 10 days): 12.5 µg/mL; Stability of Vitamin Es in AB Red ([2]; 21-25° C., 11 days): 12.3 µg/mL; Stability of Vitamin Es in AB Red ([2]; 21-25° C., 12 days): 12.3 µg/mL; Stability of Vitamin Es in AB Red ([2]; 21-25° C., 15 days): 12.1 µg/mL; Stability of Vitamin Es in AB Red ([2]; 21-25° C., 16 days): 12.1 µg/mL; Stability of Vitamin Es in AB Red ([2]; 21-25° C., 17 days): 11.3 µg/mL; Stability of Vitamin Es in AB Red ([2]; 21-25° C., 18 days): 12.0 µg/mL; Stability of Vitamin Es in AB Red ([2]; 21-25° C., 19 days): 12.0 µg/mL; Stability of Vitamin Es in AB Red ([2]; 21-25° C., 22 days): 12.1 µg/mL; Stability of Vitamin Es in AB Red ([2]; 21-25° C., 23 days): 11.7 µg/mL; Stability of Vitamin Es in AB Red ([2]; 21-25° C., 24 days): 11.5 µg/mL; Stability of Vitamin Es in AB Red ([2]; 21-25° C., 25 days): 12.4 µg/mL; Stability of Vitamin Es in AB Red ([2]; 21-25° C., 26 days): 12.0 µg/mL; Stability of Vitamin Es in AB Red ([2]; 21-25° C., 29 days): 11.9 µg/mL; Stability of Vitamin Es in AB Red ([2]; 21-25° C., 30 days): 12.6 µg/mL; Stability of Vitamin Es in AB Red ([2]; 21-25° C., 60 days): 11.6 µg/mL; Stability of Vitamin Es in AB Red ([2]; 21-25° C., 90 days): 12.3 µg/mL; Stability of Vitamin Es in AB Red ([2]; 21-25° C., 120 days): 12.3 µg/mL; Stability of Vitamin Es in AB Red ([2]; 21-25° C., 150 days): 11.4 µg/mL; Stability of Vitamin Es in AB Red ([2]; 21-25° C., 180 days): 12.0 µg/mL; Stability of Vitamin Es in AB Red ([2]; 21-25° C., 210 days): 11.6 µg/mL; Stability of Vitamin Es in AB Red ([2]; 21-25° C., 240 days): 11.3 µg/mL; Stability of Vitamin Es in AB Red ([2]; 21-25° C., 270 days): 11.4 µg/mL; Stability of Vitamin Es in AB Red ([2]; 21-25° C., 300 days): 11.2 µg/mL; Stability of Vitamin Es in AB Red ([2]; 21-25° C., 330 days): 11.6 µg/mL; Stability of Vitamin Es in AB Red ([2]; 21-25° C., 390 days): 11.3 µg/mL; Stability of Vitamin Es in AB Red ([2]; 21-25° C., 420 days): 11.3 µg/mL; Stability of Vitamin Es in AB Red ([2]; 21-25° C., 450 days): 11.2 µg/mL; Stability of Vitamin Es in AB Red ([2]; 21-25° C., 480 days): 10.4 µg/mL; Stability of Vitamin Es in AB Red ([2]; 21-25° C., 510 days): 10.4 µg/mL; Stability of Vitamin Es in AB Red ([2]; 21-25° C., 540 days): 10.6 µg/mL; Stability of Vitamin Es in AB Red ([2]; 21-25° C., 570 days): 10.6 µg/mL
